Measurements as given in patent US5393752A, “Methylpiperazinoazepine compounds, preparation and use thereof” (Therabel Research S.A./N.V., priority 1994, dated 1995).
Like-named read-outs stand apart in the source and are kept apart here.

What was measured:
[1] = Apomorphine Antagonism Test (in vivo), with locomotion and sedative effect; settings: examples: "At 20 mg/kg" heads the paragraph
Excerpt: The following results are provided by way of example.

[2] = molecular target: T1, D2 dopaminergic receptors (Rattus norvegicus, UniProt P61169); assay: Affinity test, D2 dopaminergic receptors: (3H)-spiperone displacement in rat striatum membranes; design: species or system male Wistar rats; settings: read-out: Inhibition, % (binding of 3H-spiperone)
T1 construct: The striatum is dissected rapidly and homogenized; from tissue; host or cells: striatum of male Wistar rats, membrane preparation
T1 sequence (P61169 whole entry): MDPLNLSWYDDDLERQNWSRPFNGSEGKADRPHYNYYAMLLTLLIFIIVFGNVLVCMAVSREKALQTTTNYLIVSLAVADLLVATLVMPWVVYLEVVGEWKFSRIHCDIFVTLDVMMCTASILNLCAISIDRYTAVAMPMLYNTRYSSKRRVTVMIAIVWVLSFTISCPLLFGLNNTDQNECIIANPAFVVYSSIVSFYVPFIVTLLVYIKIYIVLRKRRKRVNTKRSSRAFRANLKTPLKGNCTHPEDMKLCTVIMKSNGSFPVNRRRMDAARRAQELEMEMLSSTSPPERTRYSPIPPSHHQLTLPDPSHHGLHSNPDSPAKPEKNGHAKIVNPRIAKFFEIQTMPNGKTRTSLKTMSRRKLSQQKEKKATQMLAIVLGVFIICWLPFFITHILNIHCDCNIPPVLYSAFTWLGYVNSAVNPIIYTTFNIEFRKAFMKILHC
Procedure: Characterization by (^3 H) spiperone displacement test.
The brain of male Wistar rats (200-250 g) is removed. The striatum is dissected rapidly and homogenized into 20 ml iced buffer ([…], pH=7.4, 25° C.) by means of a Teflon homogenizer. The homogenate is centrifuged at 4° C. at 10000 G during 10 minutes, the concentrate is washed two times with iced buffer and recentrifuged. The final concentrate is suspended into iced buffer (50 nM/HCl, pH=7.4) containing […], […] EDTA. After rehomogenization, the suspension is adjusted to 1 mg proteine per ml.
The binding of (^3 H)-spiperone is evaluated onto the following mixture: 200 μl membrane preparation (0.1-0.2 mg proteine), 100 μl (10^-6 M) test substance and […] buffer for a final volume of 1 ml. Control tubes, which are taken as a reference of the nonspecific binding, contain also 1 μM (+) butaclamol. The samples (in threefold) are then incubated with 0.5 nM (^3 H)spiperone at 25° C. for 60 minutes. This step is stopped by a quick vacuum filtration of the suspension through a glass-fiber filter GF/C. The filter is rinsed three times with 5 ml iced buffer.

muscarinergic receptors = test system: muscarinergic receptors; design: species or system CFY rat; settings: 1.5 nM (3H) QNB, 25° C., pH 7.5, 60 minutes; non-specific binding with 10^-5 M atropin
[3] = Catalepsy Test (extrapyramidal effects); type: in vivo; settings: for dose at which catalepsy appears: catalepsy for doses above / cataleptic effect starting from; for cataleptic effect (in words): catalepsy test
Excerpt: See in particular GRAY W. D., OSTERBERG A. C., RAUH C. E., Arch. Int. Pharmacodyn. 134, 198, 1961 and COSTALL B., OLLEY J. E., Neuropharmacology 10, 297, 1971.
This test is representative for the extrapyramidal effects present in numerous neuroleptics (unwanted secondary effect). The compounds of the invention cause very little catalepsy and seem therefore to be free from this unwanted secondary effect. However, some products have shown a slight catalepsy: […]

[4] = scale from clozapine (20 mg/g) + to haloperidol (0.63 mg/kg) +++++
[5] = test substance 100 μl (10^-6 M) in final volume 1 ml, 0.5 nM (3H)spiperone, 25° C., 60 min, vs 1 μM (+)butaclamol

SMILES: CN1CCN(C2=Nc3cccnc3Nc3cc(Cl)ccc32)CC1 [Example 12, 9-chloro-6-(4-methylpiperazin-1-yl)-11H-pyrido(2,3-b)benzo-1,4-diazepine]
- Apomorphine antagonism, intensity of activity [1, 4]: +

SMILES: CN1CCN(C2=Nc3cccnc3Oc3ccccc32)CC1.O=C(O)/C=C/C(=O)O [Example 7, 6-(4-methylpiperazin-1-yl)pyrido(2,3-b)benzo-1,4-oxazepine fumarate]
- Apomorphine antagonism, intensity of activity [1, 4]: +

SMILES: CN1CCN(C2=Nc3ccccc3[Se]c3ccccc32)CC1 [Example 19]
- inhibition [2]: 26.7%
- Inhibition, % (binding of 3H QNB) (muscarinergic receptors): 78.31%

SMILES: CN1CCN(C2=Nc3cccnc3N(C=O)c3ccccc32)CC1 [Example 17, 11-formyl-6-(4-methylpiperazin-1-yl)-11H-pyrido(2,3-b)benzo-1,4-diazepine]
- inhibition [2, 5]: 22.8%
- Inhibition, % (binding of 3H QNB) (muscarinergic receptors): 43.38%

SMILES: CN1CCN(C2=Nc3cc(Cl)ccc3Oc3ncccc32)CC1.O=C(O)/C=C/C(=O)O [Example 5, 8-chloro-5-(4-methylpiperazin-1-yl)pyrido(2,3-b)benzo-1,5-oxazepine fumarate]
- Apomorphine antagonism, intensity of activity [1, 4]: +

SMILES: CN1CCN(C2=Nc3cccnc3Nc3ccc(F)cc32)CC1 [Example 13, 8-fluoro-6-(4-methylpiperazin-1-yl)-11H-pyrido(2,3-b)benzo-1,4-diazepine]
- Apomorphine antagonism, intensity of activity [1, 4]: +

SMILES: CN1CCN(C2=Nc3cnccc3Sc3ccccc32)CC1 [Example 18, 10-(4-methylpiperazin-1-yl)pyrido(4,3-b)benzo-1,4-thiazepine]
- inhibition [2, 5]: 50.2%
- Inhibition, % (binding of 3H QNB) (muscarinergic receptors): 57.61%

SMILES: CN1CCN(C2=Nc3ccccc3Oc3ncccc32)CC1.O=C(O)/C=C\C(=O)O [Example 4, 5-(4-methylpiperazin-1-yl)pyrido(2,3-b)benzo-1,5-oxazepine maleate]
- dose at which catalepsy appears [3]: ≥ 20 mg/kg
- cataleptic effect (in words) [3]: slight cataleptic effect

SMILES: CN1CCN(C2=Nc3ccccc3Sc3ccc(Cl)cc32)CC1 [Clothiapine, reference compound]
- inhibition [2, 5]: 94.6%
- Inhibition, % (binding of 3H QNB) (muscarinergic receptors): 38.05%

SMILES: CN1CCN(C2=Nc3cccnc3Nc3ccc(Cl)cc32)CC1 [Example 10, 8-chloro-6-(4-methylpiperazin-1-yl)-11H-pyrido(2,3-b)benzo-1,4-diazepine]
- inhibition [2, 5]: 31.5%
- Inhibition, % (binding of 3H QNB) (muscarinergic receptors): 62.08%

SMILES: Cc1ccc2c(c1)C(N1CCN(C)CC1)=Nc1cccnc1N2 [Example 11, 6-(4-methylpiperazin-1-yl)-8-methyl-11H-pyrido(2,3-b)benzo-1,4-diazepine]
- inhibition [2, 5]: 24.8%
- Inhibition, % (binding of 3H QNB) (muscarinergic receptors): 67.3%

SMILES: CN1CCN(C2=Nc3ccccc3Nc3ccncc32)CC1 [Example 1, 11-(4-methylpiperazin-1-yl)-5H-pyrido(4,3-b)benzo-1,5-diazepine]
- dose at which catalepsy appears [3]: above 40 mg/kg
- inhibition [2]: 56.2%
- Inhibition, % (binding of 3H QNB) (muscarinergic receptors): 4.48%

SMILES: CN1CCN(C2=Nc3cccnc3Sc3ccc(Cl)cc32)CC1.O=C(O)/C=C/C(=O)O [Example 3, 8-chloro-6-(4-methylpiperazin-1-yl)pyrido(2,3-b)benzo-1,4-thiazepine fumarate]
- dose at which catalepsy appears [3]: above 40 mg/kg

SMILES: O=C(CCCN1CCC(O)(c2ccc(Cl)cc2)CC1)c1ccc(F)cc1 [Haloperidol, reference compound]
- Apomorphine antagonism, intensity of activity ([1]; scale from clozapine + to haloperidol (0.63 mg/kg) +++++): +++++

SMILES: CN1CCN(C2=Nc3cc(Cl)ccc3Nc3ccccc32)CC1 [Clozapine, reference compound]
- dose at which catalepsy appears [3]: ≥ 20 mg/kg
- cataleptic effect (in words) [3]: week cataleptic effect
- Apomorphine antagonism, intensity of activity [1, 4]: +
